The source made the active and inactive calls. No stated cut-off is given here; in the data, active = inhibition of 80% or more and inactive = less.
The compounds below were run on Naegleria gruberi (assay: microbe, parasite or virus in culture). Conditions: NEG-M, CONC 10 uM.
Format: functional
Description: Growth inhibiting activity of Naegleria gruberi in vitro
For `CO/N=C(\C(=O)OC)c1ccccc1CO/N=C(\C)c1cccc(C(F)(F)F)c1`, the inhibition at 10 µM was 43.9% (not active). In the case of `COc1ccc(-c2cncc3ccc(C(=O)NCCCn4ccnc4)nc23)cc1`, the inhibition at 10 µM was 5.8% (not active). With `Cc1cc(C2=NOC(c3cc(Cl)c(F)c(Cl)c3)(C(F)(F)F)C2)ccc1C(=O)NCc1ccc2c(c1)C(C)(C)OB2O` (configuration not stated) the inhibition at 10 µM was 47.6% (not active). For `N#Cc1nc(-c2ccccc2)oc1S(=O)(=O)c1ccc(Cl)cc1`, the inhibition at 10 µM was 9.4% (not active). `COc1ccc(C2=NN(C3CCCCCC3)C(=O)[C@@H]3CC=CC[C@H]23)cc1OCCCCOc1ccc(-c2nnn[nH]2)cc1` was tested, and the inhibition at 10 µM was 30.2% (not active). `CCOC(=O)c1noc(N)c1-c1ccccc1` was tested, and the inhibition at 10 µM was 0% (not active). With `O=C(Nc1ccc(C(F)(F)F)c(C(F)(F)F)c1)c1cc(Cl)ccc1O` the inhibition at 10 µM was 98.5% (active). `O=C1[C@@H](Oc2ccccc2)[C@@H](c2ccc(Cl)cc2)N1CCn1cnc2c(NCc3ccccc3)ncnc21` was tested, and the inhibition at 10 µM was 0% (not active). With `Cc1nn2c(=O)c3c([nH]c2c1-c1ccc(Cl)cc1)CCCC3` the inhibition at 10 µM was 30.5% (not active). For `CC(C)/N=c1\cc2n(-c3ccc(Cl)cc3)c3ccccc3nc-2cc1Nc1ccc(Cl)cc1` [CLOFAZIMINE], the inhibition at 10 µM was 67.9% (not active). For `CCOc1ccc(-c2nc(CNCCc3ccc(F)cc3)cs2)cc1`, the inhibition at 10 µM was 42.4% (not active). With `CCCCOC(=O)Nc1cc2nc(C3CCCCC3)[nH]c2cc1N1CCCC1` the inhibition at 10 µM was 64.3% (not active). In the case of `Cc1ccc(Oc2ccc(NC(=O)CNc3ccccc3N3CCCC3=O)cc2)cc1`, the inhibition at 10 µM was 18.8% (not active). In the case of `O=C(Nc1ccc(F)c(-c2nc3cc(-c4ccccc4)cnc3[nH]2)c1)N1CCCC1`, the inhibition at 10 µM was 49.5% (not active). With `CS(=O)(=O)N1CCC(CCn2nc(Cc3cccc4ccccc34)c3c(N)ncnc32)CC1` the inhibition at 10 µM was 26.2% (not active). In the case of `COC(=O)c1c(NC(=O)c2c(F)c(F)c(F)c(F)c2F)sc2c1CCCCC2`, the inhibition at 10 µM was 30.9% (not active). `COc1ccc(-c2cnc3cnc(-c4cccc(OC(C)C)c4)cn23)cc1` was tested, and the inhibition at 10 µM was 9.4% (not active). For `COc1ccc2nccc(NC(=O)C3CCN(CCc4ccc(Cl)cc4)CC3)c2n1`, the inhibition at 10 µM was 18.8% (not active). `CCc1ccc([C@@H]2C[C@H](C(F)(F)F)n3ncc(C(=O)NCc4ccc(OC)cc4)c3N2)cc1` was tested, and the inhibition at 10 µM was 29% (not active). `c1ccc(-c2[nH]c3ccccc3c2C(c2ccccn2)N2CCCC2)cc1` (configuration not stated) was tested, and the inhibition at 10 µM was 32.7% (not active). For `CO[C@@H](C(=O)N1Cc2[nH]nc(NC(=O)c3ccc(N4CCN(C)CC4)cc3)c2C1)c1ccccc1` [DANUSERTIB], the inhibition at 10 µM was 41.3% (not active). With `COc1ccc(C2=NN(C3CCCCCC3)C(=O)C2(C)C)cc1OCCCCOc1ccc(-c2nn[nH]n2)cc1` the inhibition at 10 µM was 36.8% (not active). For `Cc1cc2ccccc2n1CC(=O)N1CC(C(=O)N2CCCCC2)Oc2ccccc21` (configuration not stated), the inhibition at 10 µM was 52.5% (not active). `COc1ccc(CN2CCOc3ccc(C(C)(O)CN(C)C)cc3C2)cc1C` (configuration not stated) was tested, and the inhibition at 10 µM was 26.3% (not active). In the case of `CC(C)=CCC/C(C)=C\CNCCNC1C2CC3CC(C2)CC1C3` (configuration not stated), the inhibition at 10 µM was 20.2% (not active). For `O=C1Nc2ccc(Br)cc2C12NCCc1c2[nH]c2ccccc12` (configuration not stated), the inhibition at 10 µM was 33.5% (not active). In the case of `O=C(COc1cccc(F)c1)Nc1nc(-c2ccccn2)cs1`, the inhibition at 10 µM was 24.2% (not active). For `CC(C)n1nc(-c2cc3c(Cl)cccc3[nH]2)c2c(N)ncnc21`, the inhibition at 10 µM was 72.2% (not active). With `CN(C)c1cc(NC(=O)Nc2ccccc2)c2ccccc2n1` the inhibition at 10 µM was 22.3% (not active). `Cc1cc(NC(=O)c2ccc(S(=O)(=O)N(Cc3ccccc3)C(C)C)cc2)no1` was tested, and the inhibition at 10 µM was 0% (not active). With `O=C(c1[nH]nc2c1CCCC2)N1CCN(Cc2ccc3c(c2)OCO3)CC1` the inhibition at 10 µM was 29.5% (not active). For `CC(C(=O)Nc1ccc2oc(-c3ccncc3)nc2c1)c1ccccc1` (configuration not stated), the inhibition at 10 µM was 48.6% (not active). For `Nc1ncc(-c2cn[nH]c2)cc1-c1nc2cc(Cl)cnc2[nH]1`, the inhibition at 10 µM was 10.2% (not active). With `O=C(NCCN1CCCC1)c1cc(NCCCCN2CCC(F)(F)CC2)nc2ccc(Cl)cc12` the inhibition at 10 µM was 4.3% (not active). For `Cc1cc(C(=O)Nc2ccc(-c3ccccc3)cc2)no1`, the inhibition at 10 µM was 35.7% (not active). In the case of `CC(C(=O)N1CCCC1)N1CCN(S(=O)(=O)c2ccc(C(C)(C)C)cc2)CC1` (configuration not stated), the inhibition at 10 µM was 4.7% (not active). `CNc1nnc(Sc2cnn(-c3ccccc3)c(=O)c2Cl)s1` was tested, and the inhibition at 10 µM was 50% (not active). In the case of `CNC(=O)c1nn(C)c2c1C(C)(C)Cc1cnc(Nc3ccc(N4CCN(C)CC4)cc3)nc1-2` [MILCICLIB], the inhibition at 10 µM was 18.3% (not active). In the case of `COc1cccc(-c2nc3c(N4CCCC4)cccc3n2CC2CCCN2)n1` (configuration not stated), the inhibition at 10 µM was 51.5% (not active). With `N#Cc1nc(-c2ccccc2F)oc1NCCc1ccccc1` the inhibition at 10 µM was 4.7% (not active). `CC(Oc1cccc(Cl)c1)C(=O)Nc1ccc2oc(-c3ccncc3)nc2c1` (configuration not stated) was tested, and the inhibition at 10 µM was 35.9% (not active). For `CO/C=C(/C(=O)OC)c1ccccc1Oc1cc(Oc2ccccc2C#N)ncn1` [AZOXYSTROBIN], the inhibition at 10 µM was 33.7% (not active). With `CNc1cc(C)nc(C2CN(C(=O)c3n[nH]c4ccccc34)CCO2)c1` (configuration not stated) the inhibition at 10 µM was 24.2% (not active). With `O=C(NC1=NCCS1)c1sc2cc(F)ccc2c1Cl` the inhibition at 10 µM was 34.6% (not active). In the case of `O=C1COCc2ccc(Br)cc2N1Cc1ccc(C(F)(F)F)cc1`, the inhibition at 10 µM was 26.7% (not active). In the case of `Clc1ccc(Cl)c(CO[C@H]2CCCC[C@@H]2n2ccnc2)c1`, the inhibition at 10 µM was 35.1% (not active). With `CC(C)(C)OC(=O)N1CCN(c2nccc(-c3ccc(-c4ccc(Cl)cc4)s3)n2)CC1` the inhibition at 10 µM was 17% (not active). `CN1CCN(CCCOc2ncc(Nc3ncc(-c4ccc(C(F)(F)F)c(F)c4)nc3C(N)=O)cn2)CC1` was tested, and the inhibition at 10 µM was 12.9% (not active). For `Cc1cc(OCC(=O)NCc2ccccc2)c2cc(Br)ccc2n1`, the inhibition at 10 µM was 22.1% (not active). In the case of `c1csc(-c2cnc3sc(NCC4CCOCC4)nn23)c1`, the inhibition at 10 µM was 39.9% (not active). For `Cn1ccnc1CNCCS(=O)(=O)c1cccc(Nc2ccc(-c3cccc(F)c3)cn2)c1`, the inhibition at 10 µM was 26.5% (not active). `Cc1[nH]c2cc(F)cc(F)c2c(=O)c1-c1ccc(Oc2ccc(OC(F)(F)F)cc2)cc1` was tested, and the inhibition at 10 µM was 11.3% (not active). In the case of `O=C(OCc1ccccc1)N1CCC(c2cc(-c3ccncc3)c(-c3ccc(F)cc3)[nH]2)CC1`, the inhibition at 10 µM was 42.4% (not active). For `CC1=NN(c2nc3ccccc3s2)C(=O)C1Cc1cccc2ccccc12` (configuration not stated), the inhibition at 10 µM was 57.2% (not active). `COc1ccc(CCN2CCC(NCc3cccc(N(C)C)c3)CC2)cc1` was tested, and the inhibition at 10 µM was 8.7% (not active). In the case of `CC1COC(Cn2cncn2)(c2ccc(Oc3ccc(Cl)cc3)cc2Cl)O1` (configuration not stated) [DIFENOCONAZOLE], the inhibition at 10 µM was 73.3% (not active). `Cc1cc(C)n(-c2ccc(NC(=O)C3CCN(Cc4cnc(C)s4)CC3)cc2)n1` was tested, and the inhibition at 10 µM was 6.1% (not active). In the case of `COC(=O)c1cccc2oc(-c3cccc(OC)c3NC(=O)c3cc(-c4ccccc4)on3)nc12`, the inhibition at 10 µM was 69.8% (not active). With `CS(=O)(=O)c1cccc(-c2cnc3[nH]cc(-c4ccc(CCC(=O)O)cc4)c3c2)c1` the inhibition at 10 µM was 28.7% (not active). With `Cc1ccc(NC(=O)CC2COc3ccccc3O2)cc1Cl` (configuration not stated) the inhibition at 10 µM was 79.9% (not active). In the case of `Brc1cncc(-c2cc(NCCCn3ccnc3)nc(-c3ccccc3)n2)c1`, the inhibition at 10 µM was 33.8% (not active). With `NCCCC(N)(C(=O)O)C(F)F` (configuration not stated) [EFLORNITHINE] the inhibition at 10 µM was 33.6% (not active).

Reference: ChEMBL document CHEMBL4513101, “Naegleria gruberi Pathogen Box compounds screening” (2021)
